This is an account of results in article PMC8091729 (Bioorganic & Medicinal Chemistry Letters, 2021).

One experiment has as its system COVID-19. The note with it: patients with COVID-19; cited from earlier work.
The next experiment relates to SARS-CoV-2. In words: Image-based antiviral assay. The class given is cell-based. The note with it: CC50/EC50.

Each structure is given as a SMILES string.

Turning to `CCC(CC)COC(=O)[C@H](C)N[P@](=O)(OC[C@H]1O[C@@](C#N)(c2ccc3c(N)ncnn23)[C@H](O)[C@@H]1O)Oc1ccccc1` [Remdesivir], the “benefit in clinical trials” value in the experiment on COVID-19 is 68%.
As for `O=C(Cn1c2ccccc2n2c(=O)cc(-c3ccc(Cl)cc3)nc12)Nc1ccc(F)cc1F` [Compound 7], the selectivity index entry in the experiment on SARS-CoV-2 is on record as “more than 10”.
